Laboratory results from patent publication US10766865B2, “PKM2 modulators and methods for their use” (TOLERO PHARMACEUTICALS, INC., priority 2012, dated 2020).

Molecular target: PKM2 (Homo sapiens, UniProt P14618)
Assay: PKM2 Biochemical Assay
Conditions: not given

Chain of PKM2 (P14618 whole entry): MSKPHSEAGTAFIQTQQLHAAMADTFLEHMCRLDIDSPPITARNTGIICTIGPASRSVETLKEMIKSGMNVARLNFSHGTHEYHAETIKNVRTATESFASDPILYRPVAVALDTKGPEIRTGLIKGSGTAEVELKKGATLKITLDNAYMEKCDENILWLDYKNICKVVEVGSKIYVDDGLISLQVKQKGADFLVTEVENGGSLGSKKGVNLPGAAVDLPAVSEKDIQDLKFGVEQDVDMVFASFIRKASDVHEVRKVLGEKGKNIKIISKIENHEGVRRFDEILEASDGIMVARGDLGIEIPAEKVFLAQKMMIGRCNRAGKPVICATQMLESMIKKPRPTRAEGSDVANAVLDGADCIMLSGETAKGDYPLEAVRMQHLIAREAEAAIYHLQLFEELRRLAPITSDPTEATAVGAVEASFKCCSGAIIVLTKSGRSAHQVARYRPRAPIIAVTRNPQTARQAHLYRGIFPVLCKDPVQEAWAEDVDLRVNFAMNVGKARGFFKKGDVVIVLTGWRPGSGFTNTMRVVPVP

AC50 [nM]	Compound
1150	CCN(CC)CCN(Cc1ccccc1Cl)C(=O)c1cc(Cl)n[nH]1 [Example 176, N-(2-chlorobenzyl)-3-chloro-N-(2-(diethylamino)ethyl)-1H-pyrazole-5-carboxamide]

Same assay, conditions: % maximum response in a biochemical assay as compared with Fructose 1,6-bisphosphate

Max. Resp. [%]	Compound
63	CN1CCN(CCN(Cc2ccccc2Cl)C(=O)c2cc(C(F)(F)F)n[nH]2)CC1 [Example 104]
100	O=C(c1cc(C(F)(F)F)n[nH]1)N(CCN1CCCCCC1)Cc1ccc(O)cc1F [Example 195, N-(2-fluoro-4-hydroxybenzyl)-N-(2-(azepan-1-yl)ethyl)-3-(trifluoromethyl)-1H-pyrazole-5-carboxamide]
100	O=C(c1cc(C(F)(F)F)n[nH]1)N(CCC1CCS(=O)(=O)CC1)Cc1ccc(O)cc1F [Example 87]
103	O=C(c1cc(C(F)(F)F)n[nH]1)N(CCC1CCS(=O)(=O)C1)Cc1cccc(F)c1F (stereo not drawn) [Example 68]
61	O=C(c1cc(Br)n[nH]1)N(Cc1ccc(O)cc1F)CC1CNC1 [Example 11, N-(azetidin-3-ylmethyl)-3-bromo-N-(2-fluoro-4-hydroxybenzyl)-1H-pyrazole-5-carboxamide]
53	CCN(CC)CCCN(Cc1ccccc1Cl)C(=O)c1cc(C(F)(F)F)n[nH]1 [Example 185, N-(2-chlorobenzyl)-N-(3-(diethylamino)propyl)-3-(trifluoromethyl)-1H-pyrazole-5-carboxamide]
95	O=C(c1cc(C(F)(F)F)n[nH]1)N(CCC1CCSCC1)Cc1ccccc1F [Example 79]
100	CCN(CC)CCN(Cc1cc(F)ccc1Cl)C(=O)c1cc(C(F)(F)F)n[nH]1 [Example 171, N-(2-chloro-5-fluorobenzyl)-N-(2-(diethylamino)ethyl)-3-(trifluoromethyl)-1H-pyrazole-5-carboxamide]
127	O=C(c1cc(Br)n[nH]1)N(Cc1cccc2[nH]c(=O)sc12)CC1CCC1 [Example 10, 3-bromo-N-(cyclobutylmethyl)-N-((2-oxo-2,3-dihydrobenzo[d]thiazol-7-yl)methyl)-1H-pyrazole-5-carboxamide]
102	O=C(c1cc(C(F)(F)F)n[nH]1)N(Cc1ccc(O)cc1F)CC1COC1 [Example 15]
93	O=C(c1cc(C(F)(F)F)n[nH]1)N(CCC1CCS(=O)(=O)C1)Cc1ccc(O)cc1F (stereo not drawn) [Example 76]
91	O=C(c1cc(C(F)(F)F)n[nH]1)N(CCC1CCS(=O)(=O)C1)Cc1cc(F)ccc1F (stereo not drawn) [Example 70]
76	CCCCCN(Cc1ccccc1)C(=O)c1cc(C(F)(F)F)n[nH]1 [Example 19]
100	CCN(CC)CCN(Cc1cccc(N)c1)C(=O)c1cc(C(F)(F)F)n[nH]1 [Example 154, N-(3-aminobenzyl)-N-(2-(diethylamino)ethyl)-3-(trifluoromethyl)-1H-pyrazole-5-carboxamide]
100	CC(CN(Cc1ccccc1Cl)C(=O)c1cc(C(F)(F)F)n[nH]1)N1CCCC1 (stereo not drawn) [Example 181, N-(2-chlorobenzyl)-3-(trifluoromethyl)-N-(2-(pyrrolidin-1-yl)propyl)-1H-pyrazole-5-carboxamide]
100	O=C(c1cc(C(F)(F)F)n[nH]1)N(CCN1CCC(O)CC1)Cc1ccccc1Cl [Example 219, N-(2-chlorobenzyl)-3-(trifluoromethyl)-N-(2-(4-hydroxypiperidin-1-yl)ethyl)-1H-pyrazole-5-carboxamide]
100	Nc1cccc(CN(CCN2CCCCCC2)C(=O)c2cc(C(F)(F)F)n[nH]2)c1Cl [Example 213, N-(3-amino-2-chlorobenzyl)-N-(2-(azepan-1-yl)ethyl)-3-(trifluoromethyl)-1H-pyrazole-5-carboxamide]
80	CO[C@H]1CC[C@H](N(Cc2cccc(F)c2)C(=O)c2cc(C(F)(F)F)n[nH]2)CC1 [Example 48]

Max. Resp. [%]	Compound
107	O=C(c1cc(C(F)(F)F)n[nH]1)N(CCC1CCOCC1)Cc1ccccc1Cl [Example 32]
68	O=C(c1cc(C(F)(F)F)n[nH]1)N(Cc1ccccc1F)CC1CCOC1 (stereo not drawn) [Example 150, N-(2-fluorobenzyl)-3-(trifluoromethyl)-N-((tetrahydrofuran-3-yl)methyl)-1H-pyrazole-5-carboxamide]
100	NCCN(Cc1ccc(O)cc1F)C(=O)c1cc(C(F)(F)F)n[nH]1 [Example 133, N-(2-fluoro-4-hydroxybenzyl)-N-(2-aminoethyl)-3-(trifluoromethyl)-1H-pyrazole-5-carboxamide]
94	O=C(c1cc(C(F)(F)F)n[nH]1)N(CCN1CCS(=O)(=O)CC1)Cc1c(F)cccc1F [Example 109]
114	O=C(c1cc(C(F)(F)F)n[nH]1)N(CCC1CCOC1)Cc1c(F)cccc1F (stereo not drawn) [Example 40]
75	Nc1cccc(Cl)c1CN(CC1CCN1)C(=O)c1cc(C(F)(F)F)n[nH]1 (stereo not drawn) [Example 233, N-(2-amino-6-chlorobenzyl)-N-((azetidin-2-yl)methyl)-3-(trifluoromethyl)-1H-pyrazole-5-carboxamide]
101	O=C(c1cc(C(F)(F)F)n[nH]1)N(Cc1cccc2[nH]ccc12)CC1COC1 [Example 12]
92	O=C(c1cc(C(F)(F)F)n[nH]1)N(CCN1CCS(=O)(=O)CC1)Cc1ccccc1F [Example 108]
100	CCN(CC)CCN(Cc1ccccc1Cl)C(=O)c1cc(Cl)n[nH]1 [Example 176, N-(2-chlorobenzyl)-3-chloro-N-(2-(diethylamino)ethyl)-1H-pyrazole-5-carboxamide]
100	CCN(CC)CCN(Cc1c(Cl)cccc1Cl)C(=O)c1cc(C(F)(F)F)n[nH]1 [Example 169, N-(2,6-dichlorobenzyl)-N-(2-(diethylamino)ethyl)-3-(trifluoromethyl)-1H-pyrazole-5-carboxamide]
100	CCNCCN(Cc1ccccc1F)C(=O)c1cc(C(F)(F)F)n[nH]1 [Example 155, N-(2-fluorobenzyl)-N-(2-(ethylamino)ethyl)-3-(trifluoromethyl)-1H-pyrazole-5-carboxamide]
100	Nc1cccc(Cl)c1CN(CCN1CCS(=O)(=O)CC1)C(=O)c1cc(C(F)(F)F)n[nH]1 [Example 224, N-(2-amino-6-chlorobenzyl)-N-(2-(4-dioxothiomorpholino)ethyl)-3-(trifluoromethyl)-1H-pyrazole-5-carboxamide]
85	CCN(CC)CCN(Cc1ccccc1C(C)C)C(=O)c1cc(C(F)(F)F)n[nH]1 [Example 184, N-(2-isopropylbenzyl)-N-(2-(diethylamino)ethyl)-3-(trifluoromethyl)-1H-pyrazole-5-carboxamide]
90	CO[C@H]1CC[C@H](N(Cc2cc(F)ccc2F)C(=O)c2cc(C(F)(F)F)n[nH]2)CC1 [Example 50]
100	CCN(CC)CCN(Cc1ccc(O)cc1F)C(=O)c1cc(C(F)(F)F)n[nH]1 [Example 143, N-(2-fluoro-4-hydroxybenzyl)-N-(2-(diethylamino)ethyl)-3-(trifluoromethyl)-1H-pyrazole-5-carboxamide]
100	O=C(c1cc(C(F)(F)F)n[nH]1)N(Cc1cccc2[nH]ccc12)NC1CCC1 [Example 135, N-((1H-INDOL-4-YL)METHYL)-N′-CYCLOBUTYL-3-(TRIFLUOROMETHYL)-1H-PYRAZOLE-5-CARBOHYDRAZIDE]
53	CC1CCCC(C)N1CCN(Cc1ccccc1Cl)C(=O)c1cc(C(F)(F)F)n[nH]1 (stereo not drawn) [Example 212, N-(2-chlorobenzyl)-3-(trifluoromethyl)-N-(2-(2,6-dimethylpiperidin-1-yl)ethyl)-1H-pyrazole-5-carboxamide]
